Experiments:
Conditions in all cases: route oral
Rattus norvegicus [1] = test: Percentage decrease in systolic blood pressure after 24 hr at 1 mg/kg administered perorally in rats; assay type: functional, Artery
Rattus norvegicus [2] = test: percentage decrease in heart rate after 1 hr at a dose of 0.3 mg/kg administered perorally in rats; assay type: functional
Rattus norvegicus [3] = test: Percentage decrease in systolic blood pressure after 6 hr at 10 mg/kg administered perorally in rats; assay type: functional, Artery
Rattus norvegicus [4] = test: Percentage decrease in systolic blood pressure after 4 hr at 0.3 mg/kg administered perorally in rats; assay type: functional, Artery
Rattus norvegicus [5] = test: percentage decrease in heart rate after 1 hr at a dose of 30 mg/kg administered perorally in rats; assay type: functional
Rattus norvegicus [6] = test: Percentage decrease in systolic blood pressure after 1 hr at 3 mg/kg administered perorally in rats; assay type: functional, Artery
Rattus norvegicus [7] = test: percentage decrease in heart rate after 4 hr at a dose of 10 mg/kg administered perorally in rats; assay type: functional
Rattus norvegicus [8] = test: percentage decrease in heart rate after 6 hr at a dose of 10 mg/kg administered perorally in rats; assay type: functional
Rattus norvegicus [9] = test: Percentage decrease in systolic blood pressure after 24 hr at 10 mg/kg administered perorally in rats; assay type: functional, Artery
Rattus norvegicus [10] = test: Percentage decrease in systolic blood pressure after 1 hr at 1 mg/kg administered perorally in rats; assay type: functional, Artery
Rattus norvegicus [11] = test: percentage decrease in heart rate after 24 hr at a dose of 3 mg/kg administered perorally in rats; assay type: functional
Rattus norvegicus [12] = test: Percentage decrease in systolic blood pressure after 24 hr at 0.3 mg/kg administered perorally in rats; assay type: functional, Artery
Rattus norvegicus [13] = test: percentage decrease in heart rate after 1 hr at a dose of 10 mg/kg administered perorally in rats; assay type: functional
Rattus norvegicus [14] = test: Percentage decrease in systolic blood pressure after 1 hr at 0.3 mg/kg administered perorally in rats; assay type: functional, Artery
Rattus norvegicus [15] = test: percentage decrease in heart rate after 24 hr at a dose of 10 mg/kg administered perorally in rats; assay type: functional
Rattus norvegicus [16] = test: Percentage decrease in systolic blood pressure after 4 hr at 1 mg/kg administered perorally in rats; assay type: functional, Artery
Rattus norvegicus [17] = test: percentage decrease in heart rate after 6 hr at a dose of 0.3 mg/kg administered perorally in rats; assay type: functional
Rattus norvegicus [18] = test: percentage decrease in heart rate after 4 hr at a dose of 30 mg/kg administered perorally in rats; assay type: functional
Rattus norvegicus [19] = test: percentage decrease in heart rate after 1 hr at a dose of 1 mg/kg administered perorally in rats; assay type: functional
Rattus norvegicus [20] = test: percentage decrease in heart rate after 1 hr at a dose of 3 mg/kg administered perorally in rats; assay type: functional
Rattus norvegicus [21] = test: Percentage decrease in systolic blood pressure after 24 hr at 3 mg/kg administered perorally in rats; assay type: functional, Artery
Rattus norvegicus [22] = test: percentage decrease in heart rate after 6 hr at a dose of 30 mg/kg administered perorally in rats; assay type: functional
Rattus norvegicus [23] = test: percentage decrease in heart rate after 4 hr at a dose of 3 mg/kg administered perorally in rats; assay type: functional
Rattus norvegicus [24] = test: Percentage decrease in systolic blood pressure after 4 hr at 30 mg/kg administered perorally in rats; assay type: functional, Artery
Rattus norvegicus [25] = test: percentage decrease in heart rate after 6 hr at a dose of 1 mg/kg administered perorally in rats; assay type: functional
Rattus norvegicus [26] = test: Percentage decrease in systolic blood pressure after 4 hr at 10 mg/kg administered perorally in rats; assay type: functional, Artery
Rattus norvegicus [27] = test: Percentage decrease in systolic blood pressure after 1 hr at 10 mg/kg administered perorally in rats; assay type: functional, Artery
Rattus norvegicus [28] = test: Percentage decrease in systolic blood pressure after 24 hr at 30 mg/kg administered perorally in rats; assay type: functional, Artery
Rattus norvegicus [29] = test: Percentage decrease in systolic blood pressure after 1 hr at 30 mg/kg administered perorally in rats; assay type: functional, Artery
Rattus norvegicus [30] = test: Percentage decrease in systolic blood pressure after 6 hr at 3 mg/kg administered perorally in rats; assay type: functional, Artery
Rattus norvegicus [31] = test: percentage decrease in heart rate after 4 hr at a dose of 0.3 mg/kg administered perorally in rats; assay type: functional
Rattus norvegicus [32] = test: percentage decrease in heart rate after 6 hr at a dose of 3 mg/kg administered perorally in rats; assay type: functional
Rattus norvegicus [33] = test: Percentage decrease in systolic blood pressure after 6 hr at 30 mg/kg administered perorally in rats; assay type: functional, Artery
Rattus norvegicus [34] = test: Percentage decrease in systolic blood pressure after 6 hr at 1 mg/kg administered perorally in rats; assay type: functional, Artery
Rattus norvegicus [35] = test: percentage decrease in heart rate after 4 hr at a dose of 1 mg/kg administered perorally in rats; assay type: functional
Rattus norvegicus [36] = test: percentage decrease in heart rate after 24 hr at a dose of 0.3 mg/kg administered perorally in rats; assay type: functional
Rattus norvegicus [37] = test: Percentage decrease in systolic blood pressure after 4 hr at 3 mg/kg administered perorally in rats; assay type: functional, Artery
Rattus norvegicus [38] = test: Percentage decrease in systolic blood pressure after 6 hr at 0.3 mg/kg administered perorally in rats; assay type: functional, Artery
Rattus norvegicus [39] = test: percentage decrease in heart rate after 24 hr at a dose of 1 mg/kg administered perorally in rats; assay type: functional
Rattus norvegicus [40] = test: Effect on spontaneous motor activity in rats after 1 hr at 3 mg/kg given perorally; assay type: functional
Rattus norvegicus [41] = test: Effect on spontaneous motor activity in rats after 1 hr at 0.3 mg/kg given perorally; assay type: functional
Rattus norvegicus [42] = test: Percentage decrease in systolic blood pressure (heart rate) after 4 hr at 10 mg/kg administered perorally in rats; assay type: functional, Artery
Rattus norvegicus [43] = test: Percentage decrease in systolic blood pressure (heart rate) after 4 hr at 3 mg/kg administered perorally in rats; assay type: functional, Artery
Rattus norvegicus [44] = test: Percentage decrease in systolic blood pressure (heart rate) after 6 hr at 1 mg/kg administered perorally in rats; assay type: functional, Artery
Rattus norvegicus [45] = test: Effect on spontaneous motor activity in rats after 1 hr at 10 mg/kg given perorally; assay type: functional
Rattus norvegicus [46] = test: Percentage decrease in systolic blood pressure (heart rate) after 1 hr at 10 mg/kg administered perorally in rats; assay type: functional, Artery
Rattus norvegicus [47] = test: Percentage decrease in systolic blood pressure (heart rate) after 4 hr at 1 mg/kg administered perorally in rats; assay type: functional, Artery
Rattus norvegicus [48] = test: Percentage decrease in systolic blood pressure (heart rate) after 1 hr at 3 mg/kg administered perorally in rats; assay type: functional, Artery
Rattus norvegicus [49] = test: Cumulative effect on spontaneous motor activity in rats at 3 mg/kg given perorally; assay type: functional
Rattus norvegicus [50] = test: Cumulative effect on spontaneous motor activity in rats at 0.3 mg/kg given perorally; assay type: functional
Rattus norvegicus [51] = test: Percentage decrease in systolic blood pressure (heart rate) after 1 hr at 0.3 mg/kg administered perorally in rats; assay type: functional, Artery
Rattus norvegicus [52] = test: Percentage decrease in systolic blood pressure (heart rate) after 24 hr at 0.3 mg/kg administered perorally in rats; assay type: functional, Artery
Rattus norvegicus [53] = test: Effect on spontaneous motor activity in rats after 2 hr at 10 mg/kg given perorally; assay type: functional
Rattus norvegicus [54] = test: Percentage decrease in systolic blood pressure (heart rate) after 6 hr at 3 mg/kg administered perorally in rats; assay type: functional, Artery
Rattus norvegicus [55] = test: Effect on spontaneous motor activity in rats after 1 hr at 30 mg/kg given perorally; assay type: functional
Rattus norvegicus [56] = test: Percentage decrease in systolic blood pressure (heart rate) after 6 hr at 0.3 mg/kg administered perorally in rats; assay type: functional, Artery
Rattus norvegicus [57] = test: Effect on spontaneous motor activity in rats after 2 hr at 3 mg/kg given perorally; assay type: functional
Rattus norvegicus [58] = test: Cumulative effect on spontaneous motor activity in rats at 0.1 mg/kg given perorally; assay type: functional
Rattus norvegicus [59] = test: Effect on spontaneous motor activity in rats after 1 hr at 0.1 mg/kg given perorally; assay type: functional
Rattus norvegicus [60] = test: Effect on spontaneous motor activity in rats after 2 hr at 0.1 mg/kg given perorally; assay type: functional
Rattus norvegicus [61] = test: Percentage decrease in systolic blood pressure (heart rate) after 24 hr at 1 mg/kg administered perorally in rats; assay type: functional, Artery
Rattus norvegicus [62] = test: Effect on spontaneous motor activity in rats after 2 hr at 1 mg/kg given perorally; assay type: functional
Rattus norvegicus [63] = test: Cumulative effect on spontaneous motor activity in rats at 300 mg/kg given perorally; assay type: functional
Rattus norvegicus [64] = test: Percentage decrease in systolic blood pressure (heart rate) after 24 hr at 10 mg/kg administered perorally in rats; assay type: functional, Artery
Rattus norvegicus [65] = test: Effect on spontaneous motor activity in rats after 2 hr at 0.3 mg/kg given perorally; assay type: functional
Rattus norvegicus [66] = test: Effect on spontaneous motor activity in rats after 2 hr at 30 mg/kg given perorally; assay type: functional
Rattus norvegicus [67] = test: Percentage decrease in systolic blood pressure (heart rate) after 4 hr at 0.3 mg/kg administered perorally in rats; assay type: functional, Artery
Rattus norvegicus [68] = test: Effect on spontaneous motor activity in rats after 1 hr at 1 mg/kg given perorally; assay type: functional
Rattus norvegicus [69] = test: Percentage decrease in systolic blood pressure (heart rate) after 4 hr at 100 mg/kg administered perorally in rats; assay type: functional, Artery
Rattus norvegicus [70] = test: Percentage decrease in systolic blood pressure (heart rate) after 24 hr at 100 mg/kg administered perorally in rats; assay type: functional, Artery

C#CCN1CCC2=C(C1)c1c(O)cc(C(C)CCCc3ccc(F)cc3)cc1OC2(C)C (stereo not given)
Decrease in Systolic blood pressure (Rattus norvegicus [1]): 9%
Heart rate (Rattus norvegicus [2]): -29%
Decrease in Systolic blood pressure (Rattus norvegicus [3]): 20%
Decrease in Systolic blood pressure (Rattus norvegicus [4]): -7%
Heart rate (Rattus norvegicus [5]): 5%
Decrease in Systolic blood pressure (Rattus norvegicus [6]): 8%
Heart rate (Rattus norvegicus [7]): -2%
Heart rate (Rattus norvegicus [8]): 1%
Decrease in Systolic blood pressure (Rattus norvegicus [9]): 20%
Decrease in Systolic blood pressure (Rattus norvegicus [10]): 1%
Heart rate (Rattus norvegicus [11]): -14%
Decrease in Systolic blood pressure (Rattus norvegicus [12]): -3%
Heart rate (Rattus norvegicus [13]): -3%
Decrease in Systolic blood pressure (Rattus norvegicus [14]): -5%
Heart rate (Rattus norvegicus [15]): -6%
Decrease in Systolic blood pressure (Rattus norvegicus [16]): 17%
Heart rate (Rattus norvegicus [17]): -12%
Heart rate (Rattus norvegicus [18]): 16%
Heart rate (Rattus norvegicus [19]): -9%
Heart rate (Rattus norvegicus [20]): -7%
Decrease in Systolic blood pressure (Rattus norvegicus [21]): 11%
Heart rate (Rattus norvegicus [22]): 36%
Heart rate (Rattus norvegicus [23]): 10%
Decrease in Systolic blood pressure (Rattus norvegicus [24]): 23%
Heart rate (Rattus norvegicus [25]): 5%
Decrease in Systolic blood pressure (Rattus norvegicus [26]): 30%
Decrease in Systolic blood pressure (Rattus norvegicus [27]): 34%
Decrease in Systolic blood pressure (Rattus norvegicus [28]): 43%
Decrease in Systolic blood pressure (Rattus norvegicus [29]): 33%
Decrease in Systolic blood pressure (Rattus norvegicus [30]): 9%
Heart rate (Rattus norvegicus [31]): -10%
Heart rate (Rattus norvegicus [32]): -7%
Decrease in Systolic blood pressure (Rattus norvegicus [33]): 26%
Decrease in Systolic blood pressure (Rattus norvegicus [34]): 5%
Heart rate (Rattus norvegicus [35]): 3%
Heart rate (Rattus norvegicus [36]): -5%
Decrease in Systolic blood pressure (Rattus norvegicus [37]): 27%
Decrease in Systolic blood pressure (Rattus norvegicus [38]): -5%
Heart rate (Rattus norvegicus [39]): -18%

CCCCCCCc1cc(O)c2c(c1)OC(C)(C)c1ccc(C)cc1-2
Activity (Rattus norvegicus [40]): -20%
Activity (Rattus norvegicus [41]): -21%
Decrease in Systolic blood pressure (Rattus norvegicus [42]): 58%
Decrease in Systolic blood pressure (Rattus norvegicus [43]): 44%
Decrease in Systolic blood pressure (Rattus norvegicus [44]): 33%
Activity (Rattus norvegicus [45]): -46%
Decrease in Systolic blood pressure (Rattus norvegicus [46]): 9%
Decrease in Systolic blood pressure (Rattus norvegicus [47]): 20%
Decrease in Systolic blood pressure (Rattus norvegicus [48]): 3%
Activity (Rattus norvegicus [49]): -20%
Activity (Rattus norvegicus [50]): -17%
Decrease in Systolic blood pressure (Rattus norvegicus [51]): 3%
Decrease in Systolic blood pressure (Rattus norvegicus [52]): 0%
Activity (Rattus norvegicus [53]): -98%
Decrease in Systolic blood pressure (Rattus norvegicus [54]): 38%
Activity (Rattus norvegicus [55]): -88%
Decrease in Systolic blood pressure (Rattus norvegicus [56]): 2%
Activity (Rattus norvegicus [57]): -17%
Activity (Rattus norvegicus [58]): -2%
Activity (Rattus norvegicus [59]): -3%
Activity (Rattus norvegicus [60]): 10%
Decrease in Systolic blood pressure (Rattus norvegicus [61]): -7%
Activity (Rattus norvegicus [62]): 87%
Activity (Rattus norvegicus [63]): -89%
Decrease in Systolic blood pressure (Rattus norvegicus [64]): 29%
Activity (Rattus norvegicus [65]): 28%
Activity (Rattus norvegicus [66]): -94%
Decrease in Systolic blood pressure (Rattus norvegicus [67]): 10%
Activity (Rattus norvegicus [68]): -32%

CCCCCc1cc(O)c2c(c1)OC(C)(C)[C@@H]1CCC(C)=C[C@@H]21 [DRONABINOL]
Decrease in Systolic blood pressure (Rattus norvegicus [69]): 39%
Decrease in Systolic blood pressure (Rattus norvegicus [70]): 21%

Source: ChEMBL document CHEMBL1122324, “New antihypertensive cannabinoids” (1983)
